Among the data in the NIST ThermoML archive (doi:10.1016/j.jct.2012.01.013) are viscosity and mass density values, retold here.

For this data set the following is noted: 101.33 kPa, Liquid; for viscosity: Falling or rolling sphere viscometry; for mass density: Vibrating tube method.

Numbers after ± are expanded uncertainties.

One may read the viscosity as the internal friction of a fluid under shear. As usually defined, the mass density is mass per unit of volume. Regarding `CC(=O)[O-].Cn1cc[nH+]c1` [1-methylimidazolium acetate], the viscosity reads like this: (293.15 K) 8.196 ± 0.094 mPa·s; (298.15 K) 6.926 ± 0.085 mPa·s; (303.15 K) 5.913 ± 0.079 mPa·s; (308.15 K) 5.069 ± 0.075 mPa·s; (313.15 K) 4.395 ± 0.071 mPa·s. Further, the mass density is, setting by setting: (293.15 K) 1079.75 ± 0.29 kg/m3; (298.15 K) 1075.33 ± 0.29 kg/m3; (303.15 K) 1070.89 ± 0.29 kg/m3; (308.15 K) 1066.45 ± 0.28 kg/m3; (313.15 K) 1062 ± 0.28 kg/m3.

With `CCCCO` [butan-1-ol], the viscosity is on record as 2.941 ± 0.064 mPa·s (293.15 K); 2.573 ± 0.063 mPa·s (298.15 K); 2.264 ± 0.062 mPa·s (303.15 K); 2.002 ± 0.062 mPa·s (308.15 K); 1.788 ± 0.061 mPa·s (313.15 K). For the same compound, the mass density by setting is: (293.15 K) 809.77 ± 0.14 kg/m3; (298.15 K) 805.98 ± 0.14 kg/m3; (303.15 K) 802.08 ± 0.15 kg/m3; (308.15 K) 798.19 ± 0.15 kg/m3; (313.15 K) 794.36 ± 0.15 kg/m3.

Consider `CCO` [ethanol], for which the mass density (293.15 K) is 789.48 ± 0.15 kg/m3; the mass density (298.15 K) is reported as 785.41 ± 0.15 kg/m3; the mass density (303.15 K) was determined as 780.65 ± 0.15 kg/m3; the mass density (308.15 K) amounted to 776.31 ± 0.15 kg/m3; the mass density (313.15 K) came to 772.08 ± 0.15 kg/m3.

Turning to `CO` [methanol], the viscosity runs as follows: (293.15 K) 0.588 ± 0.06 mPa·s; (298.15 K) 0.551 ± 0.06 mPa·s; (303.15 K) 0.517 ± 0.06 mPa·s; (308.15 K) 0.486 ± 0.06 mPa·s; (313.15 K) 0.46 ± 0.06 mPa·s. The mass density by setting is: (293.15 K) 791.22 ± 0.15 kg/m3; (298.15 K) 786.52 ± 0.15 kg/m3; (303.15 K) 781.81 ± 0.15 kg/m3; (308.15 K) 777.06 ± 0.15 kg/m3; (313.15 K) 772.27 ± 0.15 kg/m3.

Take `CCCO` [propan-1-ol]: the viscosity turned out to be 2.206 ± 0.062 mPa·s (293.15 K); 1.976 ± 0.062 mPa·s (298.15 K); 1.737 ± 0.061 mPa·s (303.15 K); 1.548 ± 0.061 mPa·s (308.15 K); 1.383 ± 0.061 mPa·s (313.15 K). Besides, the mass density runs as follows: (293.15 K) 803.58 ± 0.15 kg/m3; (298.15 K) 799.61 ± 0.15 kg/m3; (303.15 K) 795.6 ± 0.15 kg/m3; (308.15 K) 791.51 ± 0.15 kg/m3; (313.15 K) 787.39 ± 0.15 kg/m3.

For the compound `O` [water], the viscosity was found to be 1.002 ± 0.06 mPa·s (293.15 K); 0.891 ± 0.06 mPa·s (298.15 K); 0.798 ± 0.06 mPa·s (303.15 K); 0.718 ± 0.06 mPa·s (308.15 K); 0.652 ± 0.06 mPa·s (313.15 K).
